Results reported in US9296741B2, “Bromodomain inhibitors” (priority 2012, dated 2016).
One block for each molecule: values may come before it.

How the values were obtained:
[1] = Human liver microsome stability assay; format: in vitro ADME; conditions: both sexes, human, microsomes, pH 7.4
[2] = Mouse liver microsome stability assay; format: in vitro ADME; conditions: male, CD1, mouse, microsomes, pH 7.4
[3] = Rat liver microsome stability assay; format: in vitro ADME; conditions: rat liver microsomes (male Sprague-Dawley), 0.5 μM test compound, 0.25 mg/mL microsomal protein, pH 7.4, 37° C.; read-out: Stability in rat liver microsomes (t1/2 in minutes)
[4] = test system: breast cancer cell line MX-1; experiment: MX-1 cell line proliferation assay; format: cell-based, human; conditions: Homo sapiens, MX1, 72 h; MX-1 cells, 3-day proliferation, Cell Titer Glo; read-out: Cellular proliferation: EC50
[5] = target: human BRD4 first bromodomain (BDI_K57-E168) (Homo sapiens (Human), UniProt O60885); experiment: TR-FRET bromodomain binding assay, BRD4 first bromodomain
[6] = target: human BRD4 second bromodomain (BDII_E352-M457) (Homo sapiens (Human), UniProt O60885); experiment: TR-FRET bromodomain binding assay, BRD4 second bromodomain

Compound: CCS(=O)(=O)c1ccc(OCC2CC2)c(-c2cn(C)c(=O)c3[nH]ncc23)c1 [Example 323, 4-[2-(cyclopropylmethoxy)-5-(ethylsulfonyl)phenyl]-6-methyl-1,6-dihydro-7H-pyrazolo[3,4-c]pyridin-7-one]
half-life at 0.5 μM [1]: > 120 min | half-life at 0.5 μM [2]: > 120 min | half-life at 0.5 μM [3]: > 120 min | EC50 [4]: 37.7 nM

Compound: Cn1cc(-c2ccccc2CN2CCOCC2)c2cc[nH]c2c1=O [Example 12, 6-methyl-4-[2-(morpholin-4-ylmethyl)phenyl]-1,6-dihydro-7H-pyrrolo[2,3-c]pyridin-7-one]
half-life at 0.5 μM [1]: 51 min | half-life at 0.5 μM [2]: 33 min | half-life at 0.5 μM [3]: 10 min | EC50 [4]: > 3000 nM

Compound: Cn1cc(-c2cc(NS(=O)(=O)CC(F)(F)F)ccc2OC2CCCOC2)c2cc[nH]c2c1=O (stereo not drawn) [Example 107, 2,2,2-trifluoro-N-[3-(6-methyl-7-oxo-6,7-dihydro-1H-pyrrolo[2,3-c]pyridin-4-yl)-4-(tetrahydro-2H-pyran-3-yloxy)phenyl]ethanesulfonamide]
half-life at 0.5 μM [1]: 71 min | half-life at 0.5 μM [2]: 8 min | half-life at 0.5 μM [3]: 16 min | EC50 [4]: 31 nM

Compound: CCCS(=O)(=O)Nc1ccc(OC2CCOC2)c(-c2cn(C)c(=O)c3[nH]ccc23)c1 (stereo not drawn) [Example 92, N-[3-(6-methyl-7-oxo-6,7-dihydro-1H-pyrrolo[2,3-c]pyridin-4-yl)-4-(tetrahydrofuran-3-yloxy)phenyl]propane-1-sulfonamide]
half-life at 0.5 μM [1]: 97 min | half-life at 0.5 μM [2]: 11 min | half-life at 0.5 μM [3]: 20 min | EC50 [4]: 84 nM

Compound: CCS(=O)(=O)Nc1ccc(Oc2ccc(F)cc2F)c(-c2cn(C)c(=O)c3[nH]ncc23)c1 [Example 320, N-[4-(2,4-difluorophenoxy)-3-(6-methyl-7-oxo-6,7-dihydro-1H-pyrazolo[3,4-c]pyridin-4-yl)phenyl]ethanesulfonamide]
half-life at 0.5 μM [1]: > 120 min | half-life at 0.5 μM [2]: 116 min | half-life at 0.5 μM [3]: 57 min | EC50 [4]: 18.7 nM

Compound: CCCS(=O)(=O)Nc1ccc(OC2CCCOC2)c(-c2cn(C)c(=O)c3[nH]ccc23)c1 (stereo not drawn) [Example 106, N-[3-(6-methyl-7-oxo-6,7-dihydro-1H-pyrrolo[2,3-c]pyridin-4-yl)-4-(tetrahydro-2H-pyran-3-yloxy)phenyl]propane-1-sulfonamide]
half-life at 0.5 μM [1]: 39 min | half-life at 0.5 μM [2]: 4 min | half-life at 0.5 μM [3]: 8 min | EC50 [4]: 46.8 nM

Compound: CCS(=O)(=O)Nc1ccc(Oc2ccc(F)cc2F)c(-c2cn(C)c(=O)c3[nH]cc(CN4CCOCC4)c23)c1 [Example 350, N-{4-(2,4-difluorophenoxy)-3-[6-methyl-3-(morpholin-4-ylmethyl)-7-oxo-6,7-dihydro-1H-pyrrolo[2,3-c]pyridin-4-yl]phenyl}ethanesulfonamide]
half-life at 0.5 μM [1]: 59 min | Ki [5]: 1400 nM | half-life at 0.5 μM [2]: 23 min | Ki [6]: 505 nM | half-life at 0.5 μM [3]: 32 min

Compound: Cn1cc(-c2cc(C(=O)NCc3ccc(F)c(F)c3)ccc2Oc2ccc(F)cc2F)c2cc[nH]c2c1=O [Example 125, N-(3,4-difluorobenzyl)-4-(2,4-difluorophenoxy)-3-(6-methyl-7-oxo-6,7-dihydro-1H-pyrrolo[2,3-c]pyridin-4-yl)benzamide]
half-life at 0.5 μM [1]: 45 min | Ki [5]: 215 nM | half-life at 0.5 μM [2]: 12 min | Ki [6]: 274 nM | half-life at 0.5 μM [3]: 23 min

Compound: Cn1cc(-c2ccccc2C(=O)N2CCOCC2)c2cc[nH]c2c1=O [Example 61, 6-methyl-4-[2-(morpholin-4-ylcarbonyl)phenyl]-1,6-dihydro-7H-pyrrolo[2,3-c]pyridin-7-one]
half-life at 0.5 μM [1]: > 120 min | Ki [5]: > 13000 nM | half-life at 0.5 μM [2]: > 120 min | Ki [6]: > 22200 nM | half-life at 0.5 μM [3]: > 120 min

Compound: Cn1cc(-c2cc(S(C)(=O)=O)ccc2Oc2ccc(F)c(F)c2)c2cc[nH]c2c1=O [Example 174, 4-[2-(3,4-difluorophenoxy)-5-(methylsulfonyl)phenyl]-6-methyl-1,6-dihydro-7H-pyrrolo[2,3-c]pyridin-7-one]
half-life at 0.5 μM [1]: 40 min | Ki [5]: 19.2 nM | half-life at 0.5 μM [2]: 14 min | Ki [6]: 14.3 nM | half-life at 0.5 μM [3]: 46 min

Compound: Cn1cc(-c2cc(C(=O)N3CCC(NC(=O)OC(C)(C)C)CC3)ccc2Oc2ccc(F)cc2F)c2cc[nH]c2c1=O [Example 135, tert-butyl {1-[4-(2,4-difluorophenoxy)-3-(6-methyl-7-oxo-6,7-dihydro-1H-pyrrolo[2,3-c]pyridin-4-yl)benzoyl]piperidin-4-yl}carbamate]
half-life at 0.5 μM [1]: 8 min | Ki [5]: 274 nM | half-life at 0.5 μM [2]: 5 min | Ki [6]: 77.4 nM | half-life at 0.5 μM [3]: 24 min

The remaining lines, values ahead:

half-life at 0.5 μM [1]: 5 min | half-life at 0.5 μM [2]: 4 min | half-life at 0.5 μM [3]: 10 min | EC50 [4]: 104 nM
Compound: Cn1cc(-c2cc(S(C)(=O)=O)ccc2Oc2cccc3cnccc23)c2cc[nH]c2c1=O [Example 161, 4-[2-(isoquinolin-5-yloxy)-5-(methylsulfonyl)phenyl]-6-methyl-1,6-dihydro-7H-pyrrolo[2,3-c]pyridin-7-one]

half-life at 0.5 μM [1]: 12 min | half-life at 0.5 μM [2]: 5 min | half-life at 0.5 μM [3]: 7 min | EC50 [4]: 115 nM
Compound: CN(C)c1cccc(Oc2ccc(S(C)(=O)=O)cc2-c2cn(C)c(=O)c3[nH]ccc23)c1 [Example 180, 4-{2-[3-(dimethylamino)phenoxy]-5-(methylsulfonyl)phenyl}-6-methyl-1,6-dihydro-7H-pyrrolo[2,3-c]pyridin-7-one]

half-life at 0.5 μM [1]: 10 min | half-life at 0.5 μM [2]: 13 min | half-life at 0.5 μM [3]: 4 min | EC50 [4]: 588 nM
Compound: CCNC(=O)Cc1ccc(OCc2ccccc2)c(-c2cn(C)c(=O)c3[nH]ccc23)c1 [Example 46, 2-[4-(benzyloxy)-3-(6-methyl-7-oxo-6,7-dihydro-1H-pyrrolo[2,3-c]pyridin-4-yl)phenyl]-N-ethylacetamide]

half-life at 0.5 μM [1]: 35 min | half-life at 0.5 μM [2]: 54 min | half-life at 0.5 μM [3]: 34 min | EC50 [4]: 22.4 nM
Compound: Cn1cc(-c2cc(CS(C)(=O)=O)ccc2Nc2ccc(F)cc2)c2cc[nH]c2c1=O [Example 335, 4-{2-[(4-fluorophenyl)amino]-5-[(methylsulfonyl)methyl]phenyl}-6-methyl-1,6-dihydro-7H-pyrrolo[2,3-c]pyridin-7-one]

half-life at 0.5 μM [1]: 49 min | half-life at 0.5 μM [2]: 51 min | half-life at 0.5 μM [3]: 28 min | EC50 [4]: 240 nM
Compound: CNS(=O)(=O)c1cnc(Nc2ccccc2)c(-c2cn(C)c(=O)c3[nH]ccc23)c1 [Example 112, N-methyl-5-(6-methyl-7-oxo-6,7-dihydro-1H-pyrrolo[2,3-c]pyridin-4-yl)-6-(phenylamino)pyridine-3-sulfonamide]

half-life at 0.5 μM [1]: 26 min | half-life at 0.5 μM [2]: 28 min | half-life at 0.5 μM [3]: 9 min | EC50 [4]: 14 nM
Compound: CNS(=O)(=O)c1cnc(NC2CCCCC2)c(-c2cn(C)c(=O)c3[nH]ccc23)c1 [Example 97, 6-(cyclohexylamino)-N-methyl-5-(6-methyl-7-oxo-6,7-dihydro-1H-pyrrolo[2,3-c]pyridin-4-yl)pyridine-3-sulfonamide]

half-life at 0.5 μM [1]: 31 min | half-life at 0.5 μM [2]: 16 min | half-life at 0.5 μM [3]: 18 min | EC50 [4]: 283 nM
Compound: Cn1cc(-c2cc(C(=O)Nc3nccs3)ccc2Oc2ccccc2)c2cc[nH]c2c1=O [Example 17, 3-(6-methyl-7-oxo-6,7-dihydro-1H-pyrrolo[2,3-c]pyridin-4-yl)-4-phenoxy-N-(1,3-thiazol-2-yl)benzamide]

half-life at 0.5 μM [2]: 3 min | half-life at 0.5 μM [3]: 2 min | EC50 [4]: 233 nM
Compound: COC(=O)Cc1ccc(OCc2ccccc2)c(-c2cn(C)c(=O)c3[nH]ccc23)c1 [Example 45, methyl [4-(benzyloxy)-3-(6-methyl-7-oxo-6,7-dihydro-1H-pyrrolo[2,3-c]pyridin-4-yl)phenyl]acetate]

half-life at 0.5 μM [1]: 80 min | Ki [5]: 22.5 nM | half-life at 0.5 μM [2]: 34 min | Ki [6]: 16.5 nM | half-life at 0.5 μM [3]: 55 min
Compound: Cc1ncccc1Oc1ccc(S(C)(=O)=O)cc1-c1cn(C)c(=O)c2[nH]ccc12 [Example 179, 6-methyl-4-{2-[(2-methylpyridin-3-yl)oxy]-5-(methylsulfonyl)phenyl}-1,6-dihydro-7H-pyrrolo[2,3-c]pyridin-7-one]

half-life at 0.5 μM [1]: 11 min | Ki [5]: 70.4 nM | half-life at 0.5 μM [2]: 2 min | Ki [6]: 13.6 nM | half-life at 0.5 μM [3]: 7 min
Compound: Cn1cc(-c2cc(S(C)(=O)=O)ccc2Oc2cccc3ccncc23)c2cc[nH]c2c1=O [Example 193, 4-[2-(isoquinolin-8-yloxy)-5-(methylsulfonyl)phenyl]-6-methyl-1,6-dihydro-7H-pyrrolo[2,3-c]pyridin-7-one]

half-life at 0.5 μM [1]: 15 min | Ki [5]: 13.8 nM | half-life at 0.5 μM [2]: 9 min | Ki [6]: 10.3 nM | half-life at 0.5 μM [3]: 13 min
Compound: Cn1cc(-c2cc(S(C)(=O)=O)ccc2Oc2cccc3nsnc23)c2cc[nH]c2c1=O [Example 171, 4-[2-(2,1,3-benzothiadiazol-4-yloxy)-5-(methylsulfonyl)phenyl]-6-methyl-1,6-dihydro-7H-pyrrolo[2,3-c]pyridin-7-one]

half-life at 0.5 μM [1]: 9 min | Ki [5]: 13.3 nM | half-life at 0.5 μM [2]: 7 min | Ki [6]: 5.9 nM | half-life at 0.5 μM [3]: 15 min
Compound: Cn1cc(-c2cc(S(C)(=O)=O)ccc2Oc2ccc3ccncc3c2)c2cc[nH]c2c1=O [Example 172, 4-[2-(isoquinolin-7-yloxy)-5-(methylsulfonyl)phenyl]-6-methyl-1,6-dihydro-7H-pyrrolo[2,3-c]pyridin-7-one]

half-life at 0.5 μM [1]: 26 min | Ki [5]: 29.4 nM | half-life at 0.5 μM [2]: 6 min | Ki [6]: 18 nM | half-life at 0.5 μM [3]: 22 min
Compound: Cn1cc(-c2cc(S(C)(=O)=O)ccc2Oc2ccc3cccnc3c2)c2cc[nH]c2c1=O [Example 188, 6-methyl-4-[5-(methylsulfonyl)-2-(quinolin-7-yloxy)phenyl]-1,6-dihydro-7H-pyrrolo[2,3-c]pyridin-7-one]
